# Where a SMILES comes first, the peptide text is derived from it. [ ]: non-standard residue; d: D form. Pro(3S-OH) = O=C(O)[C@H]1NCC[C@@H]1O; Dap(CONH2) = NC(=O)NC[C@H](N)C(=O)O; Cha = N[C@@H](CC1CCCCC1)C(=O)O; Chg = N[C@H](C(=O)O)C1CCCCC1; Tle = CC(C)(C)[C@H](N)C(=O)O; dDab = NCC[C@@H](N)C(=O)O; hSer = N[C@@H](CCO)C(=O)O; Orn = NCCC[C@H](N)C(=O)O; Api = NC1(C(=O)O)CCNCC1; Dab = NCC[C@H](N)C(=O)O; Nva = CCC[C@H](N)C(=O)O
# Test system: human red blood cells (hRBC)
# Format: cell-based
# Settings: red cells of human, 1 h
# Description: The peptides were tested for their hemolytic activity against human red blood cells (hRBC). Fresh hRBC were washed three times with phosphate buffered saline (PBS) and centrifuged for 10 min at 2000×g. Compounds (100 μg/ml) were incubated with 20% hRBC (v/v) for 1 h at 37° C. and shaking at 300 rpm. The final erythrocyte concentration was approximately 0.9×10^9 cells/ml. A value of 0% and 100% cell lyses, respectively, was determined by incubation of hRBC in the presence of PBS containing 0.001% acetic acid and 2.5% Triton X-100 in H2O, respectively. The samples were centrifuged, the supernatants were 8-fold diluted in PBS buffer and the optical densities (OD) were measured at 540 nm. The 100% lyses value (OD540H2O) gave an OD540 of approximately 0.5-1.0. Percent hemolysis was calculated as follows: (OD540peptide/OD540H2O)×100%.
row,Structure (SMILES),Hemolysis at 100 μg/ml [%]
1,"COc1ccc(C[C@@H]2NC(=O)[C@H](Cc3c[nH]cn3)NC(=O)[C@H](Cc3c[nH]c4ccccc34)NC(=O)[C@@H]3CCCN3C(=O)[C@H]3CCCN3C(=O)[C@H](CO)NC(=O)[C@H](C)NC(=O)[C@H](C(C)(C)C)NC(=O)[C@H](CCO)NC(=O)[C@H](Cc3c[nH]c4ccccc34)NC(=O)[C@H](CCN)NC(=O)[C@@H](CCN)NC(=O)[C@H](CCCN)NC(=O)[C@H](CCN)NC2=O)cc1 [Ex. 16, cyclo(-Trp-His-Tyr(Me)-Dab-Orn-^DDab-Dab-Trp-Hse-tBuGly-Ala-Ser-^DPro-Pro-)] (cyclo(WHY(Me)[Dab][Orn][dDab][Dab]W[hSer][Tle]AS[dP]P))",1
2,"CC[C@H](C)[C@@H]1NC(=O)[C@@H]2CCCN2C(=O)[C@H]2CCCN2C(=O)[C@H](CO)NC(=O)[C@H](C)NC(=O)[C@H](CC2CCCCC2)NC(=O)[C@H](CCN)NC(=O)[C@H](Cc2c[nH]c3ccccc23)NC(=O)[C@H](CCN)NC(=O)[C@@H](CCN)NC(=O)[C@H](CCCCN)NC(=O)[C@H](CCN)NC(=O)[C@H](C(C)(C)C)NC(=O)[C@H](Cc2c[nH]c3ccccc23)NC1=O [compound 35, cyclo(-Ile-Trp-tBuGly-Dab-Lys-^DDab-Dab-Trp-Dab-Cha-Ala-Ser-^DPro-Pro-)] (cyclo(IW[Tle][Dab]K[dDab][Dab]W[Dab][Cha]AS[dP]P))",1
3,"CC(C)C[C@@H]1NC(=O)[C@@H]2CCCN2C(=O)[C@H]2CCCN2C(=O)[C@H](CO)NC(=O)[C@H](C)NC(=O)[C@H](C(C)(C)C)NC(=O)[C@H](CCN)NC(=O)[C@H](Cc2c[nH]c3ccccc23)NC(=O)[C@H](CCN)NC(=O)[C@@H](CCN)NC(=O)[C@H](CCCCN)NC(=O)[C@H](CCN)NC(=O)[C@H](Cc2ccc(O)cc2)NC(=O)[C@H](Cc2c[nH]cn2)NC1=O [compound 25, cyclo(-Leu-His-Tyr-Dab-Lys-^DDab-Dab-Trp-Dab-tBuGly-Ala-Ser-^DPro-Pro-)] (cyclo(LHY[Dab]K[dDab][Dab]W[Dab][Tle]AS[dP]P))",0
4,"CCC[C@@H]1NC(=O)[C@H](CCN)NC(=O)[C@H](Cc2c[nH]c3ccccc23)NC(=O)[C@H](CCN)NC(=O)[C@@H](CCN)NC(=O)[C@H](CCCN)NC(=O)[C@H](CCN)NC(=O)[C@H](CC2CCCCC2)NC(=O)[C@H](Cc2c[nH]cn2)NC(=O)[C@H](Cc2c[nH]c3ccccc23)NC(=O)[C@@H]2CCCN2C(=O)[C@H]2CCCN2C(=O)[C@H](CO)NC(=O)[C@H](C)NC1=O [compound 3, cyclo(-Trp-His-Cha-Dab-Orn-^DDab-Dab-Trp-Dab-Nva-Ala-Ser-^DPro-Pro-)] (cyclo(WH[Cha][Dab][Orn][dDab][Dab]W[Dab][Nva]AS[dP]P))",3
5,"CC(C)C[C@@H]1NC(=O)[C@@H]2CCCN2C(=O)[C@H]2CCCN2C(=O)[C@H](CO)NC(=O)[C@H](CNC(N)=O)NC(=O)[C@H](C(C)(C)C)NC(=O)[C@H](CCN)NC(=O)[C@H](Cc2c[nH]c3ccccc23)NC(=O)[C@H](CCN)NC(=O)C2(CCNCC2)NC(=O)[C@H](CCCN)NC(=O)[C@H](CCN)NC(=O)[C@H](CC2CCCCC2)NC(=O)[C@H](Cc2c[nH]cn2)NC1=O [compound 6, cyclo(-Leu-His-Cha-Dab-Orn-Pip-Dab-Trp-Dab-tBuGly-Alb-Ser-^DPro-Pro-)] (cyclo(LH[Cha][Dab][Orn][Api][Dab]W[Dab][Tle][Dap(CONH2)]S[dP]P))",3
6,"CC(C)C[C@@H]1NC(=O)[C@@H]2CCCN2C(=O)[C@H]2CCCN2C(=O)[C@H](CO)NC(=O)[C@H](C)NC(=O)[C@H](CC2CCCCC2)NC(=O)[C@H](CCN)NC(=O)[C@H](Cc2c[nH]c3ccccc23)NC(=O)[C@H](CCN)NC(=O)[C@@H](CCN)NC(=O)[C@H](CCCN)NC(=O)[C@H](CCN)NC(=O)[C@H](Cc2ccc(O)cc2)NC(=O)[C@H](Cc2c[nH]c3ccccc23)NC1=O [compound 26, cyclo(-Leu-Trp-Tyr-Dab-Orn-^DDab-Dab-Trp-Dab-Cha-Ala-Ser-^DPro-Pro-)] (cyclo(LWY[Dab][Orn][dDab][Dab]W[Dab][Cha]AS[dP]P))",1
7,"CC(C)C[C@@H]1NC(=O)[C@@H]2CCCN2C(=O)[C@H]2CCCN2C(=O)[C@H](CO)NC(=O)[C@H](CO)NC(=O)[C@H](C(C)(C)C)NC(=O)[C@H](CCN)NC(=O)[C@H](Cc2c[nH]c3ccccc23)NC(=O)[C@H](CCN)NC(=O)[C@@H](CCN)NC(=O)[C@H](CCCN)NC(=O)[C@H](CCN)NC(=O)[C@H](CC2CCCCC2)NC(=O)[C@H](Cc2c[nH]c3ccccc23)NC1=O [compound 37, cyclo(-Leu-Trp-Cha-Dab-Orn-^DDab-Dab-Trp-Dab-tBuGly-Ser-Ser-^DPro-Pro-)] (cyclo(LW[Cha][Dab][Orn][dDab][Dab]W[Dab][Tle]SS[dP]P))",1
8,"C[C@@H]1NC(=O)[C@H](C(C)(C)C)NC(=O)[C@H](CCN)NC(=O)[C@H](Cc2c[nH]c3ccccc23)NC(=O)[C@H](CCN)NC(=O)[C@@H](CCN)NC(=O)[C@H](CCCN)NC(=O)[C@H](CCN)NC(=O)[C@H](Cc2ccc(O)cc2)NC(=O)[C@H](Cc2c[nH]cn2)NC(=O)[C@H](Cc2c[nH]c3ccccc23)NC(=O)[C@@H]2CCCN2C(=O)[C@H]2CCCN2C(=O)[C@H](CO)NC1=O [compound 2, cyclo(-Trp-His-Tyr-Dab-Orn-^DDab-Dab-Trp-Dab-tBuGly-Ala-Ser-^DPro-Pro-)] (cyclo(WHY[Dab][Orn][dDab][Dab]W[Dab][Tle]AS[dP]P))",1
9,"CC(C)C[C@@H]1NC(=O)[C@H](Cc2c[nH]c3ccccc23)NC(=O)[C@H](Cc2c[nH]c3ccccc23)NC(=O)[C@@H]2CCCN2C(=O)[C@H]2CCCN2C(=O)[C@H](C(C)C)NC(=O)[C@H](C)NC(=O)[C@H](C(C)C)NC(=O)[C@H](CCN)NC(=O)[C@H](Cc2c[nH]c3ccccc23)NC(=O)[C@H](CCN)NC(=O)[C@@H](CCN)NC(=O)[C@H](CCCN)NC(=O)[C@H](CCN)NC1=O [compound 13, cyclo(-Trp-Trp-Leu-Dab-Orn-^DDab-Dab-Trp-Dab-Val-Ala-Val-^DPro-Pro-)] (cyclo(WWL[Dab][Orn][dDab][Dab]W[Dab]VAV[dP]P))",2
10,"CC(C)C[C@@H]1NC(=O)[C@@H]2CCCN2C(=O)[C@H]2CCCN2C(=O)[C@H](CO)NC(=O)[C@H](C)NC(=O)[C@H](Cc2c[nH]c3ccccc23)NC(=O)[C@H](CCN)NC(=O)[C@H](Cc2c[nH]c3ccccc23)NC(=O)[C@H](CCN)NC(=O)[C@@H](CCN)NC(=O)[C@H](CCCN)NC(=O)[C@H](CCN)NC(=O)[C@H](Cc2ccc(O)cc2)NC(=O)[C@H](Cc2c[nH]cn2)NC1=O [compound 29, cyclo(-Leu-His-Tyr-Dab-Orn-^DDab-Dab-Trp-Dab-Trp-Ala-Ser-^DPro-Pro-)] (cyclo(LHY[Dab][Orn][dDab][Dab]W[Dab]WAS[dP]P))",0
11,"CC(C)C[C@@H]1NC(=O)[C@@H]2CCCN2C(=O)[C@H]2CCCN2C(=O)[C@H](CO)NC(=O)[C@H](C)NC(=O)[C@H](C2CCCCC2)NC(=O)[C@H](CCN)NC(=O)[C@H](Cc2c[nH]c3ccccc23)NC(=O)[C@H](CCN)NC(=O)[C@@H](CCN)NC(=O)[C@H](CCCN)NC(=O)[C@H](CCN)NC(=O)[C@H](C(C)(C)C)NC(=O)[C@H](Cc2c[nH]c3ccccc23)NC1=O [compound 34, cyclo(-Leu-Trp-tBuGly-Dab-Orn-^DDab-Dab-Trp-Dab-Chg-Ala-Ser-^DPro-Pro-)] (cyclo(LW[Tle][Dab][Orn][dDab][Dab]W[Dab][Chg]AS[dP]P))",1
12,"CC(C)[C@@H]1NC(=O)[C@@H]2CCCN2C(=O)[C@H]2CCCN2C(=O)[C@H](CO)NC(=O)[C@H](C)NC(=O)[C@H](C(C)(C)C)NC(=O)[C@H](CCN)NC(=O)[C@H](Cc2c[nH]c3ccccc23)NC(=O)[C@H](CCN)NC(=O)[C@@H](CCN)NC(=O)[C@H](CCCN)NC(=O)[C@H](CCN)NC(=O)[C@H](Cc2ccc(O)cc2)NC(=O)[C@H](Cc2c[nH]cn2)NC1=O [compound 7, cyclo(-Val-His-Tyr-Dab-Orn-^DDab-Dab-Trp-Dab-tBuGly-Ala-Ser-^DPro-Pro-)] (cyclo(VHY[Dab][Orn][dDab][Dab]W[Dab][Tle]AS[dP]P))",1
13,"C[C@@H]1NC(=O)[C@H](C2CCCCC2)NC(=O)[C@H](CCN)NC(=O)[C@H](Cc2c[nH]c3ccccc23)NC(=O)[C@H](CCN)NC(=O)[C@@H](CCN)NC(=O)[C@H](CCCCN)NC(=O)[C@H](CCN)NC(=O)[C@H](CC2CCCCC2)NC(=O)[C@H](Cc2c[nH]c3ccccc23)NC(=O)[C@H](Cc2c[nH]c3ccccc23)NC(=O)[C@@H]2CCCN2C(=O)[C@H]2CCCN2C(=O)[C@H](CO)NC1=O [compound 10, cyclo(-Trp-Trp-Cha-Dab-Lys-^DDab-Dab-Trp-Dab-Chg-Ala-Ser-^DPro-Pro-)] (cyclo(WW[Cha][Dab]K[dDab][Dab]W[Dab][Chg]AS[dP]P))",1
14,"CC(C)(C)[C@@H]1NC(=O)[C@H](CCN)NC(=O)[C@H](Cc2c[nH]c3ccccc23)NC(=O)[C@H](CCN)NC(=O)C2(CCNCC2)NC(=O)[C@H](CCCN)NC(=O)[C@H](CCN)NC(=O)[C@H](CC2CCCCC2)NC(=O)[C@H](Cc2c[nH]cn2)NC(=O)[C@H](Cc2c[nH]c3ccccc23)NC(=O)[C@@H]2[C@@H](O)CCN2C(=O)[C@H]2CCCN2C(=O)[C@H](CO)NC(=O)[C@H](CO)NC1=O [Ex. 14, cyclo(-Trp-His-Cha-Dab-Orn-Pip-Dab-Trp-Dab-tBuGly-Ser-Ser-^DPro-Pro((3S)OH)—)] (cyclo(WH[Cha][Dab][Orn][Api][Dab]W[Dab][Tle]SS[dP][Pro(3S-OH)]))",4

# From US10370412B2, “Beta-hairpin peptidomimetics” (Polyphor AG, priority 2013, dated 2019)
